For this assay, the system named is PC-3 cells. In words: PC-3 Oxygen Rate Consumption (OCR) Assay. Format: cell-based. The note with it: Homo sapiens, 0.05 h, medium with 2% FBS, OCR at 3-min post-injection normalized to % increase over DMSO-treated cells, concentration for half-maximal OCR increase, read-out: EC50-PC3-OCR-FBS-3min. The method in brief: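 PC-3 cells seeded a day before, equilibrated 1 h in XF medium with 10 mM glucose, 1 mM pyruvate, 2% FBS, non-CO2 at 37 °C. Compound injected after basal OCR reads; OCR at 3 min post-injection normalized as % increase over DMSO, EC50 = half-maximal increase; six replicates.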
In general, EC50 refers to the concentration needed to bring the measured effect to its halfway point. Regarding `CC(C)(C)S(=O)(=O)Nc1ccc(C(F)(F)F)cc1C(=O)NC12CCC(C#N)(CC1)C2` [Example 172, N-(4-cyanobicyclo[2.2.1]heptan-1-yl)-2-((1,1-dimethylethyl)sulfonamido)-5-(trifluoromethyl)benzamide], the EC50 was found to be 1.66 µM. The result for `O=C(NC12CC(C1)C2)c1ccc(C(F)(F)F)cc1NS(=O)(=O)c1ccccc1` [Example 37, N-(bicyclo[1.1.1]pentan-1-yl)-2-(phenylsulfonamido)-4-(trifluoromethyl)benzamide] reads 2.1 µM; that for `CS(=O)(=O)c1ccc(S(=O)(=O)Nc2cc(F)ccc2C(=O)NC23CC(C(F)(F)F)(C2)C3)cc1` [Example 5, 4-fluoro-2-((4-(methylsulfonyl)phenyl)sulfonamido)-N-(3-(trifluoromethyl)bicyclo[1.1.1]pentan-1-yl)benzamide], 5.8 µM; that for `CC(C)S(=O)(=O)Nc1cc(C(F)(F)F)ccc1C(=O)NC12CC(C1)C2` [Example 55, N-(bicyclo[1.1.1]pentan-1-yl)-2-((1-methylethyl)sulfonamido)-4-(trifluoromethyl)benzamide], 6.32 µM. The result for `O=C(NC12CC(C1)C2)c1ccc(F)cc1NS(=O)(=O)C1CC1` [Example 50, N-(bicyclo[1.1.1]pentan-1-yl)-2-(cyclopropanesulfonamido)-4-fluorobenzamide] reads ≥ 100 µM; that for `CS(=O)(=O)c1ccc(NS(=O)(=O)c2ccc(S(F)(F)(F)(F)F)cc2)c(C(=O)NC23CC(C(F)(F)F)(C2)C3)c1` [Example 150, 5-(methylsulfonyl)-2-((4-(pentafluoro-λ^6-sulfanyl)phenyl)sulfonamido)-N-(3-(trifluoromethyl)bicyclo[1.1.1]pentan-1-yl)benzamide], ≥ 20 µM. The figure for `CS(=O)(=O)Nc1ccc(SC(F)(F)F)cc1C(=O)NC12CCC(C#N)(CC1)CC2` [Example 235, N-(4-cyanobicyclo[2.2.2]octan-1-yl)-2-(methylsulfonamido)-5-((trifluoromethyl)thio)benzamide] is 4.53 µM. Take `CS(=O)(=O)Nc1ccc(C(F)(F)F)cc1C(=O)NC12CC(C(F)(F)F)(C1)C2` [Example 166, 2-(methylsulfonamido)-5-(trifluoromethyl)-N-(3-(trifluoromethyl)bicyclo[1.1.1]pentan-1-yl)benzamide]: the EC50 is 1.07 µM. In the case of `O=C(NC12CCC(C(F)(F)F)(CC1)CC2)c1ccc(F)cc1NS(=O)(=O)N1CCS(=O)(=O)CC1` [Example 231, 2-((1,1-dioxidothiomorpholine)-4-sulfonamido)-4-fluoro-N-(4-(trifluoromethyl)bicyclo[2.2.2]octan-1-yl)benzamide], the half-maximal effective concentration (EC50) amounted to 4.69 µM. The result for `CS(=O)(=O)CCOc1ccc(S(=O)(=O)Nc2cc(C(F)(F)F)ccc2C(=O)NC23CC(C(F)(F)F)(C2)C3)cc1` [Example 115, 2-((4-(2-(methylsulfonyl)ethoxy)phenyl)sulfonamido)-4-(trifluoromethyl)-N-(3-(trifluoromethyl)bicyclo[1.1.1]pentan-1-yl)benzamide] reads 12.6 µM.

Consider `CC(C)(C)S(=O)(=O)Nc1ccc(Cl)cc1C(=O)NC12CC(C#N)(C1)C2` [Example 85, 5-chloro-N-(3-cyanobicyclo[1.1.1]pentan-1-yl)-2-((1,1-dimethylethyl)sulfonamido)benzamide], for which the EC50 was found to be 12.5 µM. Take `CS(=O)(=O)Nc1cc(C#N)ccc1C(=O)NC12CC(C(F)(F)F)(C1)C2` [Example 148, 4-cyano-2-(methylsulfonamido)-N-(3-(trifluoromethyl)bicyclo[1.1.1]pentan-1-yl)benzamide]: the EC50 is 17.7 µM. With `O=C(NC12CC(C(F)(F)F)(C1)C2)c1ccc(C(F)(F)F)cc1NS(=O)(=O)c1ccc(OC(F)(F)F)cc1` [Example 6, 2-((4-(trifluoromethoxy)phenyl)sulfonamido)-4-(trifluoromethyl)-N-(3-(trifluoromethyl)bicyclo[1.1.1]pentan-1-yl)benzamide], the EC50 was found to be 0.267 µM. Consider `N#CC12CCC(NC(=O)c3cc(F)ccc3NS(=O)(=O)CCC(F)(F)F)(CC1)CC2` [Example 220, N-(4-cyanobicyclo[2.2.2]octan-1-yl)-5-fluoro-2-((3,3,3-trifluoropropyl)sulfonamido)benzamide], for which the EC50 was 5.09 µM.

Consider `CS(=O)(=O)c1ccc(S(=O)(=O)Nc2cc(C(F)(F)F)ccc2C(=O)NC23CC(c4ccccc4)(C2)C3)cc1` [Example 11, 2-((4-(methylsulfonyl)phenyl)sulfonamido)-N-(3-phenylbicyclo[1.1.1]pentan-1-yl)-4-(trifluoromethyl)benzamide], for which the EC50 is 1.92 µM. The figure for `CS(=O)(=O)c1ccc(S(=O)(=O)Nc2cc(Cl)c(Cl)cc2C(=O)NC23CC(c4ccccc4)(C2)C3)cc1` [Example 93, 4,5-dichloro-2-((4-(methylsulfonyl)phenyl)sulfonamido)-N-(3-phenylbicyclo[1.1.1]pentan-1-yl)benzamide] is 2.64 µM. The result for `N#CC12CC(NC(=O)c3ccc(C(F)(F)F)cc3NS(=O)(=O)c3ccc(OC(F)(F)F)cc3)(C1)C2` [Example 32, N-(3-cyanobicyclo[1.1.1]pentan-1-yl)-2-((4-(trifluoromethoxy)phenyl)sulfonamido)-4-(trifluoromethyl)benzamide] reads 1.52 µM; that for `N#Cc1ccc(NS(=O)(=O)N2CCCC2)c(C(=O)NC23CCC(C#N)(CC2)CC3)c1` [Example 131, 5-cyano-N-(4-cyanobicyclo[2.2.2]octan-1-yl)-2-(pyrrolidine-1-sulfonamido)benzamide], 19.5 µM; that for `N#CC1(S(=O)(=O)Nc2ccc(Cl)cc2C(=O)NC23CCC(C(F)(F)F)(CC2)CC3)CC1` [Example 209, 5-chloro-2-((1-cyanocyclopropane)-1-sulfonamido)-N-(4-(trifluoromethyl)bicyclo[2.2.2]octan-1-yl)benzamide], 0.648 µM. The figure for `O=C(NC12CC(c3ccccc3)(C1)C2)c1ccc(C(F)(F)F)cc1NS(=O)(=O)c1ccc(-n2cnnn2)cc1` [Example 43, 2-((4-(1H-tetrazol-1-yl)phenyl)sulfonamido)-N-(3-phenylbicyclo[1.1.1]pentan-1-yl)-4-(trifluoromethyl)benzamide] is 2.99 µM; for `CC(C)(C)S(=O)(=O)Nc1ccc(C#N)cc1C(=O)NC12CC(C(F)(F)F)(C1)C2` [Example 97, 5-cyano-2-((1,1-dimethylethyl)sulfonamido)-N-(3-(trifluoromethyl)bicyclo[1.1.1]pentan-1-yl)benzamide] it is 1.43 µM; for `O=C(NC12CC(C(F)(F)F)(C1)C2)c1ccccc1NS(=O)(=O)CC(F)(F)F` [Example 143, 2-((2,2,2-trifluoroethyl)sulfonamido)-N-(3-(trifluoromethyl)bicyclo[1.1.1]pentan-1-yl)benzamide] it is 10.2 µM.

For `CC(C)(C)c1ccc(C(=O)NC23CC(C#N)(C2)C3)c(NS(=O)(=O)c2ccc(S(C)(=O)=O)cc2)c1` [Example 14, 4-(tert-butyl)-N-(3-cyanobicyclo[1.1.1]pentan-1-yl)-2-((4-(methylsulfonyl)phenyl)sulfonamido)benzamide], the EC50 is ≥ 20 µM.

As for `O=C(NC12CCC(C(F)(F)F)(CC1)CC2)c1cc(C(F)(F)F)ccc1NS(=O)(=O)C1CCS(=O)(=O)CC1` [Example 239, 2-((1,1-dioxidotetrahydro-2H-thiopyran)-4-sulfonamido)-5-(trifluoromethyl)-N-(4-(trifluoromethyl)bicyclo[2.2.2]octan-1-yl)benzamide], the EC50 was 7.73 µM.

The values are drawn from patent US12049439B2 (OrsoBio, Inc., priority 2018, dated 2024).
